Test results taken from the NIST ThermoML archive (doi:10.1021/acs.jced.7b01128).
Values joined by “and” are separate entries in the source; they are usually repeats but may differ in a detail not shown here. Equal values may be shown once.

What was measured:
[1] = Liquid, Ebulliometric method (Recirculating still)
[2] = refractive index (Na D-line) (dimensionless); settings: 101.33 kPa, Liquid, Standard Abbe refractometry

CC(C)CCO [3-methylbutan-1-ol]
Settings | refractive index, 298.15 K | vapor or sublimation pressure, 343.15 K [kPa] | vapor or sublimation pressure, 386.05 K [kPa] | vapor or sublimation pressure, 392.15 K [kPa] | vapor or sublimation pressure, 397.15 K [kPa] | vapor or sublimation pressure, 403.95 K [kPa]
[1] | – | 7.73 | 53.33 | 66.66 | 79.99 | 101.05
[2] | 1.403 | – | – | – | – | –

CCCCO [butan-1-ol]
Settings | refractive index, 298.15 K | vapor or sublimation pressure, 353.15 K [kPa] | vapor or sublimation pressure, 363.15 K [kPa] | vapor or sublimation pressure, 366.75 K [kPa] | vapor or sublimation pressure, 373.15 K [kPa] | vapor or sublimation pressure, 379.55 K [kPa] | vapor or sublimation pressure, 383.15 K [kPa] | vapor or sublimation pressure, 384.35 K [kPa] | vapor or sublimation pressure, 390.75 K [kPa]
[1] | – | 21.73 | 34.13 | 39.99 | 51.86 | 66.66 | 76.52 | 79.99 | 100.78
[2] | 1.397 | – | – | – | – | – | – | – | –

C1COCCN1 [tetrahydro-1,4-oxazine]
Settings | refractive index | vapor or sublimation pressure
[1], 343.15 K | – | 13.06 kPa
[1], 353.15 K | – | 19.73 kPa
[1], 363.15 K | – | 28.93 kPa
[1], 372.15 K | – | 39.99 kPa
[1], 373.15 K | – | 41.32 kPa
[1], 380.75 K | – | 53.33 kPa
[1], 383.15 K | – | 57.86 kPa
[1], 387.55 K | – | 66.66 kPa
[1], 393.35 K | – | 79.99 kPa
[1], 393.45 K | – | 79.99 kPa
[1], 401.15 K | – | 101.05 kPa and 100.78 kPa
[2], 293.15 K | 1.455 | –
